Measurements published in patent US7175829B2, “Contrast-enhanced diagnostic imaging method for monitoring interventional therapies” (Epix Pharmaceuticals, Inc., priority 1997, dated 2007).

What was measured:
[1] = biological target: T1, human serum albumin (HSA) (Homo sapiens, UniProt P02768); assay: Relaxivity R1 at 20 MHz during thermal denaturation of 4.5% HSA solutions; assay type: physicochemical; conditions: for R1: 20 MHz, 4.5% HSA solution
Method: (§1) In these examples, the longitudinal relaxivities (R1, mM^−1 sec^−1) were monitored and obtained at 20 MHz by determining the relaxation rate (1/T1) of water protons in phosphate buffered saline (PBS, 150 mM NaCl, 10 mM phosphate, pH=7.4), in PBS solutions containing 4.5 wt % HSA, or in gels containing 4.5 wt % HSA and 1% Agar. The dependence of temperature on relaxivity (R1) was observed by varying the temperature of the samples with a circulating water bath and monitoring sample temperature with a thermocouple.
(§2) The following three samples were prepared in solutions of 4.5% HSA: (1) a control sample without a contrast agent; (2) a comparative sample with Gd-DTPA; and (3) a sample with MS-325. The samples with Gd-DTPA and MS-325 were prepared by adding an aqueous formulation (pH=7) comprising either Gd-DTPA or MS-325 to the 4.5% HSA solution.
The three samples were then used to monitor the thermal denaturation of the 4.5% HSA solutions. […] Each sample was then removed from the NMR and heated at 85° C. for 15 minutes to induce thermal denaturation of the HSA. Subsequently, the sample was returned to the NMR and T1 data was collected at this higher temperature.

[2] = biological target: T1, human serum albumin (HSA); assay: T1-weighted MRI at 1.0 Tesla of agar phantoms containing 4.5% HSA during thermal denaturation; assay type: physicochemical; conditions: 0.3 mM Gd-DTPA, 0.1 mM MS-325; for % Loss ROI: 1% agar, 4.5% HSA, 1.0 Tesla
Method: The following samples were prepared in 1% agar gels containing 4.5% HSA: (1) a control sample without a contrast agent; (2) a comparative sample with Gd-DTPA; and (3) a sample with MS-325. The contrast agents were added in an amount sufficient such that the concentration of Gd-DTPA and MS-325 were 0.3 mM Gd-DTPA and 0.1 mM MS-325, respectively. Such agar gels containing 4.5% HSA are referred to as “phantoms”.
Initial T1-weighted MRI scans (FISP-3D, TR=15, TE=4, alpha=30) at 1.0 Tesla of the agar phantoms were then obtained at a temperature of about 25° C.
The phantoms were then heated in a circulating water bath with additional T1-weighted MRI scans obtained over time.

[3] = Rat plasma pharmacokinetic experiment (blood retention, AUC-conc.); assay type: in vivo; conditions: two rats, tail vein injection of 0.1 mmol/kg Gd^153-labeled Gd-DTPA
Excerpt: The incorporation into a contrast agent of this invention of a BHEM results in prolonged blood retention of the agent. […] Blood retention (as measured by AUC-conc) can be evaluated experimentally by administration of a contrast agent to rats, rabbits, or higher mammals. It has been observed that blood half-life extension is greater in rabbits and higher mammals than in rats. In this application, blood half-life data, as measured by AUC-conc., represents experimentation in rats.
For example, the average plasma concentrations observed after tail vein injection of 0.1 mmol/kg of Gd^153-labeled Gd-DTPA in two rats is shown in FIG. 1.

[4] = biological target: T1, human serum albumin (HSA); assay: Relaxivity R1 at 20 MHz during ethanol denaturation of 4.5% HSA solutions; assay type: physicochemical; conditions: for R1 0.31 mM Gd-DTPA: 4.5% HSA, 37° C.
Method: as §1, §2
Absolute ethanol was then titrated to each of the samples. T1 data (and thus R1 data (=1/T1)) was collected at 20 MHz and 37° C. after each addition of ethanol.

[5] = system: alpha 1-acid glycoprotein (AAG); conditions: binding to alpha 1-acid glycoprotein; cited from earlier work

T1 sequence (P02768 25-609): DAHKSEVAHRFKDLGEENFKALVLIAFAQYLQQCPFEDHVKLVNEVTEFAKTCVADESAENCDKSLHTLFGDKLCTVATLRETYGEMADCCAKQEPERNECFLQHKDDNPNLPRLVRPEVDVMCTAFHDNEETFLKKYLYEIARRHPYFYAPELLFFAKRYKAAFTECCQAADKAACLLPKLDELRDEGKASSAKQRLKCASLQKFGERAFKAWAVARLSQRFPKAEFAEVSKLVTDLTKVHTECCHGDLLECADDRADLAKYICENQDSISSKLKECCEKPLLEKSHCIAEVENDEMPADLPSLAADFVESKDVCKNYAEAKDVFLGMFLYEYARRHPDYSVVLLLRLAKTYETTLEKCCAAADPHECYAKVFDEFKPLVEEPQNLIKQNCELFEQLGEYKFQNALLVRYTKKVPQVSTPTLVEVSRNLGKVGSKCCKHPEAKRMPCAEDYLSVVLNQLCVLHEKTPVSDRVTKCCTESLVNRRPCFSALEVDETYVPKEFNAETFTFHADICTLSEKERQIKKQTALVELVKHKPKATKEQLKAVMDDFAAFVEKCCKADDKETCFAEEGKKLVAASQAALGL

O=C([O-])CN(CCN(CC(=O)[O-])CC(=O)O)CCN(CC(=O)[O-])CC(=O)O.[Gd+3] [Gd-DTPA, reference compound]
R1 ([1]; 7.3 °C, 0.3 mM Gd-DTPA, 0.1 mM MS-325): 9.4556 mM⁻¹ s⁻¹ | R1 ([1]; 11.7 °C, 0.3 mM Gd-DTPA, 0.1 mM MS-325): 8.8125 mM⁻¹ s⁻¹ | R1 ([1]; 16.2 °C, 0.3 mM Gd-DTPA, 0.1 mM MS-325): 8.0690 mM⁻¹ s⁻¹ | R1 ([1]; 20.6 °C, 0.3 mM Gd-DTPA, 0.1 mM MS-325): 7.4182 mM⁻¹ s⁻¹ | R1 ([1]; 25.0 °C, 0.3 mM Gd-DTPA, 0.1 mM MS-325): 6.7426 mM⁻¹ s⁻¹ | R1 ([1]; 29.5 °C, 0.3 mM Gd-DTPA, 0.1 mM MS-325): 6.2117 mM⁻¹ s⁻¹ | R1 ([1]; 33.9 °C, 0.3 mM Gd-DTPA, 0.1 mM MS-325): 5.7089 mM⁻¹ s⁻¹ | R1 ([1]; 38.4 °C, 0.3 mM Gd-DTPA, 0.1 mM MS-325): 5.2984 mM⁻¹ s⁻¹ | R1 ([1]; 42.8 °C, 0.3 mM Gd-DTPA, 0.1 mM MS-325): 4.8917 mM⁻¹ s⁻¹ | R1 ([1]; 47.3 °C, 0.3 mM Gd-DTPA, 0.1 mM MS-325): 4.5992 mM⁻¹ s⁻¹ | R1 ([1]; 51.7 °C, 0.3 mM Gd-DTPA, 0.1 mM MS-325): 4.3083 mM⁻¹ s⁻¹ | R1 ([1]; 56.2 °C, 0.3 mM Gd-DTPA, 0.1 mM MS-325): 4.0592 mM⁻¹ s⁻¹ | R1 ([1]; 60.6 °C, 0.3 mM Gd-DTPA, 0.1 mM MS-325): 3.8806 mM⁻¹ s⁻¹ | R1 ([1]; 85.0 °C, after heating at 85° C. for 15 minutes (HSA denatured), 0.3 mM Gd-DTPA, 0.1 mM MS-325): 4.2102 mM⁻¹ s⁻¹ | net loss in R1 after denatured samples cooled to physiological temperature ([1]; denatured samples cooled to 37° C., 0.3 mM Gd-DTPA, 0.1 mM MS-325): 0.5 mM^−1 sec^−1 | loss in observed R1 during denaturation of the HSA ([1]; from immediately before denaturation (56.2° C.) to immediately after denaturation (85° C.), 0.3 mM Gd-DTPA, 0.1 mM MS-325): 0.1 mM⁻¹ s⁻¹ | binding to native or denatured HSA ([1]; inferred from R1 change during thermal denaturation): does not bind to either native or denatured HSA | % Loss ROI ([2]; 0 min, 25.3 °C): −0.2456% | % Loss ROI ([2]; 10 min, 29.6 °C): −5.1875% | % Loss ROI ([2]; 20 min, 38.3 °C): −12.806% | % Loss ROI ([2]; 30 min, 45.0 °C): −18.985% | % Loss ROI ([2]; 40 min, 53.0 °C): −30.964% | % Loss ROI ([2]; 50 min, 64.7 °C): −43.833% | % Loss ROI ([2]; 60 min, 72.8 °C): −46.086% | % Loss ROI ([2]; 70 min, 87.1 °C): −47.529% | % Loss ROI ([2]; 120 min, 35.5 °C (cooled after denaturation)): −10.190% | loss in signal intensity after denaturation and cooling ([2]; denatured phantoms cooled to 37° C.): 10% | loss of signal intensity on thermal denaturation ([2]; phantoms heated above 50–60° C.): only a modest change | AUC-conc. from 0 to 10 minutes [3]: 3.5 mM·min | decrease/change in observed relaxivity during ethanol ablation ([4]; 4.5% HSA solutions, 0.31 mM Gd-DTPA, 0.08 mM MS-325, 37° C.): 0.3 mM⁻¹ s⁻¹ | R1 0.31 mM Gd-DTPA ([4]; ethanol 0.0 %): 4.1737 mM⁻¹ s⁻¹ | R1 0.31 mM Gd-DTPA ([4]; ethanol 16.1 %): 4.7191 mM⁻¹ s⁻¹ | R1 0.31 mM Gd-DTPA ([4]; ethanol 27.8 %): 5.0021 mM⁻¹ s⁻¹ | R1 0.31 mM Gd-DTPA ([4]; ethanol 36.6 %): 4.9347 mM⁻¹ s⁻¹ | R1 0.31 mM Gd-DTPA ([4]; ethanol 43.5 %): 4.7997 mM⁻¹ s⁻¹ | R1 0.31 mM Gd-DTPA ([4]; ethanol 49.0 %): 4.4623 mM⁻¹ s⁻¹

CN(C)CCCN1c2ccccc2Sc2ccc(Cl)cc21 [chloropromazine]
Ka [5]: 35.4×10^5
